This note sets out measurements from PubChem BioAssay (NCI).

The structures appear in SMILES notation. Where “and” joins values, the source holds several entries; their conditions need not be identical. Equal entries are not always repeated.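 Growth conditions: 96-well plates. Treatment: test compound, 48 hours, 5 concentrations. Analysis: linear interpolation between bracketing concentrations; unreached endpoints set to highest concentration. GI50: concentration for 50% inhibition of growth. TGI: total growth inhibition.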 Where only a bound is given, the exact number is not on record here.

Test systems include MALME-3M melanoma; HS 578T breast; RXF 393 renal; SNB-75 CNS; MCF7 breast; PC-3 prostate; SW-620 colon; OVCAR-5 ovarian; 786-0 renal; A549 NSCLC.
Test in all cases: NCI-60 cell line screen, 48 h

On to `C[C@]12CCC3[C@@H](CC[C@@H]4c5nonc5CC[C@]34C)C1CCC(=O)N2` (some centres not stated), for which the TGI in the test with MALME-3M melanoma, with HS 578T breast, in the test on RXF 393 renal, with SNB-75 CNS, in the test with MCF7 breast and in the test on PC-3 prostate was > 100 µM in each case. For the same compound, the TGI in the test with SW-620 colon, in the test with OVCAR-5 ovarian, in the test on 786-0 renal and in the test with A549 NSCLC was > 100 µM in each case. Further, the GI50 was > 100 µM with HS 578T breast, 35.2 µM with SNB-75 CNS, > 100 µM in the test on MCF7 breast and 68.3 µM in the test with PC-3 prostate.

With `CN(C)c1ccc2c(c1)Sc1cc(N(C)C)ccc1N2C(=O)c1ccccc1`, the GI50 with MALME-3M melanoma is 21.4 µM; in the test on HS 578T breast it was 10.8 µM; with RXF 393 renal, 28.7 µM; with SNB-75 CNS, 15.4 µM; in the test with MCF7 breast, 37 µM; in the test on PC-3 prostate it was 12.9 µM. Besides, the GI50 in the test on SW-620 colon is 71.6 µM; in the test with OVCAR-5 ovarian, > 100 µM; in the test with 786-0 renal, 32.8 µM; in the test with A549 NSCLC, 32.5 µM. Moreover, the TGI is 77.1 µM with MALME-3M melanoma; 57.4 µM in the test on HS 578T breast; > 100 µM in the test on RXF 393 renal; 66.3 µM in the test on SNB-75 CNS; > 100 µM in the test with MCF7 breast; > 100 µM in the test with PC-3 prostate. Also, the TGI in the test on SW-620 colon, in the test on OVCAR-5 ovarian, in the test with 786-0 renal and with A549 NSCLC was > 100 µM throughout.

Regarding `Cc1ccc(C(=O)Nc2cccc(C(F)(F)F)c2)cc1Nc1nc(-c2cccnc2)nc2c1cnn2C`, the GI50 in the test with MALME-3M melanoma is 0.482 µM and 0.262 µM; with HS 578T breast, 1.94 µM and 1.41 µM; in the test with RXF 393 renal it was 1.47 µM and 1.45 µM; in the test with SNB-75 CNS it was 2.83 µM and 2.17 µM; in the test with MCF7 breast it was 2.42 µM and 1.98 µM; in the test with PC-3 prostate, 3.05 µM and 2.65 µM. Besides, the GI50 in the test with SW-620 colon was 1.74 µM and 1.51 µM; in the test on OVCAR-5 ovarian it was 1.36 µM and 0.845 µM; in the test with 786-0 renal, 2.67 µM and 1.64 µM; in the test with A549 NSCLC it was 3.2 µM and 2.11 µM. In addition, the TGI with MALME-3M melanoma was 2.77 µM and 1.5 µM; in the test with HS 578T breast, 7.14 µM and 4.91 µM; with RXF 393 renal it was 4.24 µM and 3.66 µM; in the test on SNB-75 CNS it was 11.1 µM and 6.05 µM; in the test on MCF7 breast, 7.65 µM and 6.24 µM; with PC-3 prostate, 11.1 µM and > 10 µM. Also, the TGI in the test on SW-620 colon was 13.4 µM and > 10 µM; in the test with OVCAR-5 ovarian, 15.1 µM and > 10 µM; with 786-0 renal, 8.01 µM and 5.12 µM; with A549 NSCLC, 16.1 µM and > 10 µM.

On to `O=C(c1ccccc1)C(CN1CCOCC1)c1ccccc1` (configuration not stated), for which the GI50 in the test with MALME-3M melanoma was 1.79 µM; with HS 578T breast it was 1.77 µM; in the test with RXF 393 renal it was 1.8 µM; in the test with SNB-75 CNS it was 2.29 µM; in the test on MCF7 breast it was 1.25 µM; in the test on PC-3 prostate, 2.93 µM. The GI50 was 0.372 µM with SW-620 colon, 2.65 µM with OVCAR-5 ovarian, 2.72 µM with 786-0 renal and 3.94 µM in the test with A549 NSCLC. Moreover, the TGI in the test with MALME-3M melanoma amounted to 4.03 µM; with HS 578T breast it was 8.37 µM; in the test with RXF 393 renal, 3.36 µM; in the test with SNB-75 CNS, 12 µM; with MCF7 breast, 2.66 µM; with PC-3 prostate it was 13.3 µM. In addition, the TGI is 1.28 µM in the test with SW-620 colon, 5.3 µM in the test on OVCAR-5 ovarian, 6.93 µM with 786-0 renal and 14.9 µM with A549 NSCLC.

In the case of `O=S(=O)(NCCNC/C=C/c1ccc(Br)cc1)c1cccc2cnccc12`, the GI50 in the test with MALME-3M melanoma was 7.39 µM and 12.7 µM; in the test on HS 578T breast it was 4.62 µM and 12 µM; in the test on RXF 393 renal it was 3.37 µM and 9.08 µM; in the test with SNB-75 CNS, 3.14 µM and 1.85 µM; with MCF7 breast, 8.98 µM and 9.53 µM; in the test on PC-3 prostate it was 7.18 µM and 11.2 µM. The GI50 was 12.6 µM and 16.8 µM with SW-620 colon; 13.4 µM and 12.9 µM with OVCAR-5 ovarian; 4.22 µM and 9.27 µM in the test with 786-0 renal; 11.3 µM and 13.6 µM in the test on A549 NSCLC. Also, the TGI was 23 µM and 26.9 µM in the test on MALME-3M melanoma; 42 µM and 51.9 µM in the test on HS 578T breast; 15.6 µM and 22.3 µM with RXF 393 renal; 14.7 µM and 13.5 µM with SNB-75 CNS; 25.1 µM and 25.4 µM with MCF7 breast; 21.2 µM and 24.5 µM in the test on PC-3 prostate. Moreover, the TGI with SW-620 colon was 27.6 µM and 32.4 µM; with OVCAR-5 ovarian it was 27.5 µM and 28 µM; in the test with 786-0 renal, 19.8 µM and 21.9 µM; with A549 NSCLC, 24.9 µM and 27.4 µM.

Regarding `CC1=C(CCC(C)N(C)Cc2ccc(OCCCN3CCCC3)cc2)C(C)(C)CCC1` (configuration not stated), the GI50 in the test with MALME-3M melanoma was 1.67 µM; in the test on HS 578T breast, 2.53 µM; in the test with RXF 393 renal, 2.59 µM; in the test on SNB-75 CNS, 1.58 µM; in the test on MCF7 breast it was 1.63 µM; with PC-3 prostate it was 3.28 µM. Further, the GI50 in the test on SW-620 colon was 3.01 µM; in the test on OVCAR-5 ovarian, 3.2 µM; in the test with 786-0 renal, 2.59 µM; in the test with A549 NSCLC, 6.48 µM. Besides, the TGI came out at 3.23 µM in the test on MALME-3M melanoma; 9.73 µM with HS 578T breast; 10.2 µM in the test on RXF 393 renal; 3.92 µM with SNB-75 CNS; 3.65 µM in the test with MCF7 breast; 14.1 µM with PC-3 prostate. For the same compound, the TGI came out at 10.8 µM with SW-620 colon, 11.1 µM in the test on OVCAR-5 ovarian, 11.7 µM with 786-0 renal and 20.5 µM in the test with A549 NSCLC.

For `CC(CN1CCN(CCOCCO)CC1)CN1c2ccccc2Sc2ccc(Cl)cc21` (configuration not stated), the GI50 with MALME-3M melanoma is 1.75 µM; with HS 578T breast, 3.44 µM; with RXF 393 renal, 1.58 µM; in the test with MCF7 breast, 2.64 µM; in the test with PC-3 prostate it was 2.6 µM; in the test with SW-620 colon it was 1.84 µM. Moreover, the GI50 in the test on OVCAR-5 ovarian is 2.6 µM; in the test with 786-0 renal it was 4.79 µM; with A549 NSCLC, 3.05 µM. Moreover, the TGI with MALME-3M melanoma was determined as 3.45 µM; in the test on HS 578T breast, 20.1 µM; with RXF 393 renal it was 4.85 µM; with MCF7 breast it was 6.61 µM; in the test with PC-3 prostate it was 10.6 µM; in the test with SW-620 colon, 3.58 µM. Also, the results for the TGI in the test on OVCAR-5 ovarian, with 786-0 renal and with A549 NSCLC were 7.27 µM, 18 µM and 12.4 µM, respectively.
